Measured values published in PubChem BioAssay (NCI).
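Compound exposure: 48 hours, 5 concentrations, 96-well plates. GI50 is the concentration that inhibits growth by half. TGI: total growth inhibition.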

Tests used:
Test in all cases: NCI-60 cell line screen, 48 h
KM12 colon = tested on: KM12 colon
NCI-H23 lung = tested on: NCI-H23 lung
HCC-2998 colon = tested on: HCC-2998 colon
HOP-62 NSCLC = tested on: HOP-62 NSCLC
UACC-257 melanoma = tested on: UACC-257 melanoma
SK-OV-3 ovarian = tested on: SK-OV-3 ovarian
OVCAR-3 ovarian = tested on: OVCAR-3 ovarian
RXF 393 renal = tested on: RXF 393 renal
M14 melanoma = tested on: M14 melanoma
K-562 leukemia = tested on: K-562 leukemia
786-0 renal = tested on: 786-0 renal
SF-295 CNS = tested on: SF-295 CNS
NCI-H522 lung = tested on: NCI-H522 lung
HCT-116 colon = tested on: HCT-116 colon
OVCAR-8 ovarian = tested on: OVCAR-8 ovarian
SK-MEL-2 melanoma = tested on: SK-MEL-2 melanoma
COLO 205 colon = tested on: COLO 205 colon
HOP-92 NSCLC = tested on: HOP-92 NSCLC
SW-620 colon = tested on: SW-620 colon
CCRF-CEM leukemia = tested on: CCRF-CEM leukemia
NCI-H226 lung = tested on: NCI-H226 lung
MDA-MB-231 breast = tested on: MDA-MB-231 breast
HCT-15 colon = tested on: HCT-15 colon
SNB-19 CNS = tested on: SNB-19 CNS
ACHN renal = tested on: ACHN renal
TK-10 renal = tested on: TK-10 renal
CAKI-1 renal = tested on: CAKI-1 renal
OVCAR-5 ovarian = tested on: OVCAR-5 ovarian

Question: Which results are given for `CCOC(=O)c1ccc2[nH]c(O)c(C(=Nc3ccc(N(C)C(=O)CN4CCN(C)CC4)cc3)c3ccccc3)c2c1`?
Answer: TGI (KM12 colon): 1.51 µM; GI50 (NCI-H23 lung): 0.467 µM; TGI (NCI-H23 lung): 2.23 µM; GI50 (HCC-2998 colon): 0.655 µM; TGI (HCC-2998 colon): 2.06 µM; GI50 (HOP-62 NSCLC): 0.428 µM; TGI (HOP-62 NSCLC): 2.18 µM; GI50 (UACC-257 melanoma): 1.38 µM; TGI (UACC-257 melanoma): 3.17 µM; GI50 (SK-OV-3 ovarian): 0.206 µM; TGI (SK-OV-3 ovarian): 1.23 µM; GI50 (OVCAR-3 ovarian): 0.774 µM; TGI (OVCAR-3 ovarian): 2.3 µM; GI50 (RXF 393 renal): 0.189 µM; TGI (RXF 393 renal): 0.698 µM; GI50 (M14 melanoma): 0.339 µM; TGI (M14 melanoma): 1.53 µM; GI50 (K-562 leukemia): 0.0625 µM; TGI (K-562 leukemia): 2.04 µM; GI50 (786-0 renal): 0.213 µM; TGI (786-0 renal): 1.78 µM; GI50 (SF-295 CNS): 0.894 µM; TGI (SF-295 CNS): 2.2 µM; GI50 (NCI-H522 lung): 1.12 µM; TGI (NCI-H522 lung): 3.34 µM; GI50 (HCT-116 colon): 0.172 µM; TGI (HCT-116 colon): 1.26 µM; GI50 (OVCAR-8 ovarian): 0.514 µM; TGI (OVCAR-8 ovarian): 2.89 µM; GI50 (SK-MEL-2 melanoma): 0.78 µM; TGI (SK-MEL-2 melanoma): 2.57 µM; GI50 (COLO 205 colon): 0.275 µM; TGI (COLO 205 colon): 1.47 µM; GI50 (HOP-92 NSCLC): 0.781 µM; TGI (HOP-92 NSCLC): 2.78 µM; GI50 (SW-620 colon): 0.346 µM; TGI (SW-620 colon): 1.62 µM; GI50 (CCRF-CEM leukemia): 0.416 µM; TGI (CCRF-CEM leukemia): 8.65 µM; GI50 (NCI-H226 lung): 0.596 µM; TGI (NCI-H226 lung): 2.4 µM; GI50 (MDA-MB-231 breast): 0.222 µM; TGI (MDA-MB-231 breast): 1.54 µM; GI50 (HCT-15 colon): 0.402 µM; TGI (HCT-15 colon): 1.81 µM; GI50 (SNB-19 CNS): 0.743 µM; TGI (SNB-19 CNS): 2.1 µM; GI50 (ACHN renal): 0.356 µM; TGI (ACHN renal): 1.53 µM; GI50 (TK-10 renal): 0.54 µM; TGI (TK-10 renal): 3.33 µM; GI50 (CAKI-1 renal): 0.103 µM; TGI (CAKI-1 renal): 1.16 µM; GI50 (OVCAR-5 ovarian): 1.35 µM; TGI (OVCAR-5 ovarian): 3.44 µM
